Assay results reported in ChEMBL document CHEMBL3271999, “Antimycotic imidazoles. 2. Synthesis and antimycotic properties of 1-[2-(arylalkyl)-2-phenylethyl]-1H-imidazoles” (1977).
Activity calls are given as the source filed them. The rule behind the calls is not given here.

What was measured:
[1] = system: Candida tropicalis; experiment: Antifungal activity against Candida tropicalis assessed as lowest dose level for total inhibition of fungal growth; assay type: functional
[2] = system: Aspergillus fumigatus; experiment: Antifungal activity against Aspergillus fumigatus assessed as lowest dose level for total inhibition of fungal growth; assay type: functional
[3] = system: Staphylococcus haemolyticus; experiment: Antibacterial activity against Staphylococcus haemolyticus assessed as lowest dose level for total inhibition of bacterial growth; assay type: functional
[4] = system: Phialophora verrucosa; experiment: Antifungal activity against Phialophora verrucosa assessed as lowest dose level for total inhibition of fungal growth; assay type: functional
[5] = system: Sporothrix schenckii; experiment: Antifungal activity against Sporothrix schenckii assessed as lowest dose level for total inhibition of fungal growth; assay type: functional
[6] = system: Candida albicans; experiment: In vivo antifungal activity against Candida albicans topically infected in guinea pig assessed as animal cured at 10 mg/kg, po; assay type: functional, organism-based; design: dose 10 mg/kg
[7] = system: Erysipelothrix rhusiopathiae; experiment: Antibacterial activity against Erysipelothrix insidiosa assessed as lowest dose level for total inhibition of bacterial growth; assay type: functional
[8] = system: Saprolegnia; experiment: Antifungal activity against Saprolegnia species assessed as lowest dose level for total inhibition of fungal growth; assay type: functional
[9] = system: Candida albicans; experiment: Antifungal activity against Candida albicans assessed as lowest dose level for total inhibition of fungal growth; assay type: functional
[10] = system: Cryptococcus neoformans; experiment: Antifungal activity against Cryptococcus neoformans assessed as lowest dose level for total inhibition of fungal growth; assay type: functional
[11] = system: Trichophyton rubrum; experiment: Antifungal activity against Trichophyton rubrum assessed as lowest dose level for total inhibition of fungal growth; assay type: functional
[12] = system: Trichophyton mentagrophytes; experiment: Antifungal activity against Trichophyton mentagrophytes assessed as lowest dose level for total inhibition of fungal growth; assay type: functional
[13] = system: Microsporum canis; experiment: Antifungal activity against Microsporum canis assessed as lowest dose level for total inhibition of fungal growth; assay type: functional
[14] = system: Mucor; experiment: Antifungal activity against Mucor species assessed as lowest dose level for total inhibition of fungal growth; assay type: functional
[15] = system: Streptococcus pyogenes; experiment: Antibacterial activity against Streptococcus pyogenes assessed as lowest dose level for total inhibition of bacterial growth; assay type: functional

| SMILES | Activity [1] | Activity [2] | Activity [3] | Activity [4] | Activity [5] | Activity [6] | Activity [7] | Activity [8] | Activity [9] | Activity [10] | Activity [11] | Activity [12] | Activity [13] | Activity [14] | Activity [15] |
| --- | --- | --- | --- | --- | --- | --- | --- | --- | --- | --- | --- | --- | --- | --- | --- |
| Clc1ccc(C(Cc2ccc(Br)cc2)Cn2ccnc2)c(Cl)c1.O=[N+]([O-])O (stereo not given) | 10 µg/mL | 100 µg/mL | 10 µg/mL | 10 µg/mL | 10 µg/mL | inactive | <1 µg/mL | 100 µg/mL | 10 µg/mL | <1 µg/mL | <1 µg/mL | <1 µg/mL | 10 µg/mL | 10 µg/mL | <1 µg/mL |
| Clc1ccccc1CC(Cn1ccnc1)c1ccccc1Cl.O=[N+]([O-])O (stereo not given) | >100 µg/mL | 10 µg/mL | 100 µg/mL | 100 µg/mL | 10 µg/mL | inactive | 1 µg/mL | 100 µg/mL | 100 µg/mL | <1 µg/mL | <1 µg/mL | <1 µg/mL | 10 µg/mL | 100 µg/mL | <1 µg/mL |
| Clc1ccc(CC(Cn2ccnc2)c2ccccc2Cl)c(Cl)c1.O=[N+]([O-])O (stereo not given) | >100 µg/mL | 100 µg/mL | 100 µg/mL | 100 µg/mL | 10 µg/mL | inactive | 10 µg/mL | 100 µg/mL | 100 µg/mL | <1 µg/mL | <1 µg/mL | <1 µg/mL | 10 µg/mL | 100 µg/mL | <1 µg/mL |
| Clc1ccc(CC(Cn2ccnc2)c2ccccc2Cl)cc1.O=[N+]([O-])O (stereo not given) | >100 µg/mL | 100 µg/mL | 100 µg/mL | 100 µg/mL | 10 µg/mL | Active | 1 µg/mL | 100 µg/mL | 10 µg/mL | <1 µg/mL | <1 µg/mL | <1 µg/mL | 10 µg/mL | 100 µg/mL | 1 µg/mL |
| Clc1ccc(C(Cc2ccccc2)Cn2ccnc2)c(Cl)c1.O=[N+]([O-])O (stereo not given) | 10 µg/mL | 100 µg/mL | 10 µg/mL | 10 µg/mL | 10 µg/mL | inactive | <1 µg/mL | 10 µg/mL | 100 µg/mL | <1 µg/mL | <1 µg/mL | <1 µg/mL | 10 µg/mL | 100 µg/mL | <1 µg/mL |
| Clc1ccc(CCC(Cn2ccnc2)c2ccc(Cl)cc2Cl)c(Cl)c1.O=[N+]([O-])O (stereo not given) | >100 µg/mL | 100 µg/mL | 100 µg/mL | >100 µg/mL | 10 µg/mL | inactive | <1 µg/mL | 100 µg/mL | >100 µg/mL | <1 µg/mL | <1 µg/mL | <1 µg/mL | 10 µg/mL | >100 µg/mL | <1 µg/mL |
| Clc1ccc(CC(Cn2ccnc2)c2c(Cl)cccc2Cl)c(Cl)c1.O=[N+]([O-])O (stereo not given) | >100 µg/mL | 100 µg/mL | 10 µg/mL | >100 µg/mL | 10 µg/mL | inactive | 1 µg/mL | 100 µg/mL | >100 µg/mL | 10 µg/mL | <1 µg/mL | 10 µg/mL | 10 µg/mL | 100 µg/mL | <1 µg/mL |
| COc1ccc(CCC(Cn2ccnc2)c2ccc(Cl)cc2Cl)cc1.O=[N+]([O-])O (stereo not given) | >100 µg/mL | 100 µg/mL | 1 µg/mL | 10 µg/mL | 10 µg/mL | inactive | <1 µg/mL | 10 µg/mL | >100 µg/mL | <1 µg/mL | <1 µg/mL | <1 µg/mL | 10 µg/mL | 100 µg/mL | <1 µg/mL |
| Clc1ccc(C(Cc2ccccc2Cl)Cn2ccnc2)cc1.O=[N+]([O-])O (stereo not given) | 100 µg/mL | 100 µg/mL | 10 µg/mL | 100 µg/mL | 100 µg/mL | inactive | 1 µg/mL | 100 µg/mL | 100 µg/mL | <1 µg/mL | <1 µg/mL | <1 µg/mL | 10 µg/mL | 10 µg/mL | 10 µg/mL |
| Clc1ccc(CC(Cn2ccnc2)c2ccc(Cl)cc2Cl)cc1.O=[N+]([O-])O (stereo not given) | 100 µg/mL | 100 µg/mL | 10 µg/mL | 100 µg/mL | 10 µg/mL | inactive | <1 µg/mL | <1 µg/mL | 100 µg/mL | <1 µg/mL | <1 µg/mL | <1 µg/mL | 10 µg/mL | 100 µg/mL | <1 µg/mL |
| Clc1ccc(CCC(Cn2ccnc2)c2ccc(Cl)cc2Cl)cc1.O=[N+]([O-])O (stereo not given) | 10 µg/mL | 100 µg/mL | 1 µg/mL | 10 µg/mL | <1 µg/mL | inactive | <1 µg/mL | 10 µg/mL | 10 µg/mL | <1 µg/mL | <1 µg/mL | <1 µg/mL | 10 µg/mL | 100 µg/mL | <1 µg/mL |
| Clc1ccc(CC(Cn2ccnc2)c2ccc(Cl)cc2Cl)c(Cl)c1.O=[N+]([O-])O (stereo not given) | 10 µg/mL | 100 µg/mL | 10 µg/mL | 100 µg/mL | <1 µg/mL | inactive | <1 µg/mL | 100 µg/mL | 10 µg/mL | <1 µg/mL | <1 µg/mL | <1 µg/mL | 10 µg/mL | 100 µg/mL | <1 µg/mL |
